Test results published in patent publication US20260265302A1, “PEPTIDE WITH ACTIVITY OF PROMOTING HAIR GROWTH OR INHIBITING HAIR LOSS AND USE THEREOF” (CAREGEN CO., LTD., priority 2023, published 2026).
Entries after “also recorded” stand apart in the source; their conditions may differ.

Tests used:
DKK-1 = test: DHT-induced DKK-1 expression western blot in hair follicle dermal papilla cells; type: cell-based, human; conditions: HHFDPC; for inhibiting effect on DKK-1 expression (in words): DHT-induced, peptides at different concentrations (FIG. 4, FIG. 7)
Method: To confirm whether a peptide consisting of the amino acid sequence of SEQ ID NO: 1 inhibits the expression of DKK-1, a hair loss-related factor, in hair follicle cells. Human hair follicle dermal papilla cells were seeded in 6-well plates at a density of 4×10^5 cells/well and cultured for 24 hours. After replacing with serum-free mesenchymal stem cell medium, the cells were cultured for 24 hours. The peptides were treated at concentrations of 10 μM, 50 μM, or 100 μM, respectively, and simultaneously treated with DHT, an inducer of hair loss protein DKK-1, at a concentration of 100 nM. As a positive control group, 5 μM of finasteride, a drug that inhibits androgens, was treated. DHT is known as a hair loss hormone that increases the expression of DKK-1 (Dickkopf-related protein 1), a hair loss-inducing factor, by activating androgen receptors. After culturing at 37° C. for 24 hours, the cells were washed with PBS, treated with lysis buffer to prepare cell lysates, and equal amounts of protein samples were prepared by BCA quantification. Electrophoresis was performed using a 10% SDS-PAGE gel. Proteins separated by SDS PAGE were transferred to a PVDF membrane. Blocking was performed at room temperature for 30 minutes using 5% skim milk. DKK-1 (cell signaling, USA) antibody was diluted 1:1000 in 3% BSA and reacted with the membrane at 4° C. for 16 hours. The membrane was then washed three times with 0.1% PBS-T (0.1% Tween-20 in PBS) for 15 minutes each. The secondary antibody was diluted 1:2000 in 5% skim milk and reacted at room temperature for 1 hour. The membrane was then washed three times with 0.1% PBS-T (0.1% Tween-20 in PBS) for 15 minutes each. After treatment with ECL solution (GE Healthcare, USA), protein band detection and densitometry were performed using ImageQuant 800 (Amersham, USA).
The effect of inhibiting the expression of hair loss-related factors was compared between the novel peptide consisting of the amino acid sequence of SEQ ID NO: 1 and the peptide consisting of the amino acid sequence of SEQ ID NO: 10. The experiment was conducted in the same manner as described in Example 5, and it was confirmed whether the expression of DKK-1, a hair loss-related factor, was inhibited after treating HHFDPC with peptides at different concentrations.

[1] = test system: human hair follicle dermal papilla cells; test: Hair follicle cell proliferation (SRB staining, absorbance 560 nm); type: cell-based; conditions: HHFDPC; for proliferation effect on hair follicle cells (in words): peptides at different concentrations (FIG. 1, FIG. 5)
Method: To confirm the effect of a peptide consisting of the amino acid sequence of SEQ ID NO: 1 on promoting the proliferation of hair follicle cells. Specifically, human hair follicle dermal papilla cells were seeded in a 96-well plate at a density of 4×10^3 cells/well and cultured for 24 hours. After replacing with serum-free mesenchymal stem cell medium, the cells were cultured for 24 hours. The above peptide was treated at concentrations of 10 μM, 50 μM, or 100 μM, respectively, and incubated at 37° C. for 72 hours. As a positive control group, 1 μM of Minoxidil, a hair loss treatment drug, was treated. After completion of culturing, the culture supernatant was removed and the cells were fixed using ethanol. After washing with PBS, staining was performed by treating with SRB solution. After washing with 1% acetic acid, cells were observed under a microscope and destained by treating with 20 mM tris solution. Cell viability was measured by measuring absorbance at a wavelength of 560 nm using a spectrophotometer (SpectraMax iD3, Molecular Devices (USA, CA)).
The proliferation effects of a novel peptide consisting of the amino acid sequence of SEQ ID NO: 1 and a peptide consisting of the amino acid sequence of SEQ ID NO: 10 disclosed in KR10-1285259 (Table 3) on hair follicle cell proliferation were compared. The experiment was conducted in the same manner as described in Example 2, and the cell proliferation effect was measured after treating HHFDPC with peptides at different concentrations.

Lef-1 = test: RT-PCR expression of Lef-1 in hair follicle dermal papilla cells; type: cell-based, human; conditions: HHFDPC, peptide 10, 50 or 100 μM, 24 hours, maximum effect (FIG. 3)
Method: (§1) To confirm the effect of a peptide consisting of the amino acid sequence of SEQ ID NO: 1 on promoting hair follicle cell activity. Human hair follicle dermal papilla cells were seeded in 6-well plates at a density of 4×10^5 cells/well and cultured for 24 hours. After replacing with serum-free mesenchymal stem cell medium, the cells were cultured for 24 hours. A peptide was treated at concentrations of 10 μM, 50 μM, or 100 μM, respectively, and incubated at 37° C. for 24 hours. As a positive control group, 10 ng/mL of recombinant human Wnt-3a protein was treated. After washing with PBS, RNA was isolated by treating with 300 μL of easy blue (intron, Korea). After RNA quantification, cDNA synthesis was performed using a cDNA synthesis kit (enzynomics, Korea). Electrophoresis was performed on a 1.5% agarose gel and band detection was performed using a Bio-Rad gel image system.

c-Myc = test: RT-PCR expression of c-Myc in hair follicle dermal papilla cells; type: cell-based, human; conditions: HHFDPC, peptide 10, 50 or 100 μM, 24 hours, maximum effect (FIG. 3)
Method: as §1

Cyclin D1 = test: RT-PCR expression of Cyclin D1 in hair follicle dermal papilla cells; type: cell-based, human; conditions: HHFDPC, peptide 10, 50 or 100 μM, 24 hours, maximum effect (FIG. 3)
Method: as §1

β-catenin = test: Nuclear β-catenin western blot (promotion of proliferation mechanism of hair follicle cells); type: cell-based, human; conditions: HHFDPC; for translocation of β-catenin from the cytoplasm to the nucleus (in words): peptides at various concentrations (FIG. 6)
Method: To confirm the effect of a peptide consisting of the amino acid sequence of SEQ ID NO: 1 on promoting the proliferation mechanism of hair follicle cells. Specifically, human hair follicle dermal papilla cells were seeded in a 6-well plate at a density of 4×10^5 cells/well and cultured for 24 hours. After replacing with serum-free mesenchymal stem cell medium, the cells were cultured for 24 hours. A peptide was treated at concentrations of 10 μM, 50 μM, or 100 μM, respectively, and incubated at 37° C. for 24 hours. As a positive control group, 10 ng/ml of recombinant human Wnt-3a protein was treated. After washing with PBS, nucleoproteins were isolated using a nucleoprotein extraction kit (Thermo scientific, USA) and quantified with BCA to prepare equal amounts of protein samples. The proteins separated by electrophoresis using a 10% SDS-PAGE gel were transferred to a PVDF membrane. Blocking was performed at room temperature for 30 minutes using 5% skim milk. β-catenin (cell signaling, USA) and HDAC1 (santa cruz, USA) antibodies were diluted 1:1000 in 3% BSA and reacted with the membrane at 4° C. for 16 hours. The membrane was washed three times with 0.1% PBS-T (0.1% Tween-20 in PBS) for 15 minutes each. The secondary antibody was diluted 1:2000 in 5% skim milk and reacted at room temperature for 1 hour. The membrane was then washed three times with 0.1% PBS-T (0.1% Tween-20 in PBS) for 15 minutes each. After treatment with ECL solution (GE Healthcare, USA), the membrane was detected.
The proliferation-promoting effects of a novel peptide consisting of the amino acid sequence of SEQ ID NO: 1 and a peptide consisting of the amino acid sequence of SEQ ID NO: 10 on hair follicle cells were compared. The experiment was conducted in the same manner as described in Example 3, in which HHFDPC was treated with peptides at various concentrations and the translocation of β-catenin from the cytoplasm to the nucleus was measured.

Sequence	inhibiting effect on DKK-1 expression (in words) (DKK-1)	DKK-1 expression level reduction compared to the negative control group (DHT treatment group) (DKK-1; high-concentration peptide treatment group, DHT 100 nM, 24 hours, western blot (FIG. 4))	ability to inhibit the expression of DKK-1 compared with the known peptide (DKK-1; same concentration, SEQ ID NO: 1 vs SEQ ID NO: 10 (FIG. 7))	proliferation increase of hair follicle cells ([1]; peptide 10, 50 or 100 μM, 72 hours, maximum effect (FIG. 1))	proliferation effect on hair follicle cells (in words) [1]	hair follicle cell proliferation promotion activity compared with the known peptide ([1]; same concentration, SEQ ID NO: 1 vs SEQ ID NO: 10 (FIG. 5))	Lef-1 expression increase compared to the control group (Lef-1)	c-Myc expression increase compared to the control group (c-Myc)	Cyclin D1 expression increase compared to the control group (Cyclin D1)	nuclear translocation of β-catenin from the cytoplasm to the nucleus, increase (β-catenin; peptide 10, 50 or 100 μM, 24 hours, nucleoprotein western blot, maximum effect (FIG. 2))	expression of β-catenin (in words) (β-catenin; peptide 10, 50 or 100 μM, 24 hours, western blot (FIG. 2))	translocation of β-catenin from the cytoplasm to the nucleus (in words) (β-catenin)	proliferation mechanism promoting activity compared with the known peptide (β-catenin; same concentration, SEQ ID NO: 1 vs SEQ ID NO: 10 (FIG. 6))
AERRREKCRC [SEQ ID NO: 1]	exhibit an inhibiting effect on DKK-1 expression in a concentration-dependent manner; also recorded: inhibiting DKK-1 expression induced by DHT	about 50%	significantly higher ability to inhibit the expression of DKK-1 than the known peptide	up to 155%	proliferation was induced in a concentration-dependent manner; also recorded: exhibit a proliferation effect on hair follicle cells in a concentration-dependent manner	significantly higher hair follicle cell proliferation promotion activity than the known peptide	up to 3 times	up to 1.62 times	up to 1.96 times	up to 1.35 times	expression of β-catenin increases	promote the translocation of β-catenin from the cytoplasm to the nucleus in a concentration-dependent manner	significantly higher proliferation mechanism promoting activity than the known peptide
AERRRELCRC [SEQ ID NO: 10, reference compound]	exhibit an inhibiting effect on DKK-1 expression in a concentration-dependent manner	–	–	–	exhibit a proliferation effect on hair follicle cells in a concentration-dependent manner	–	–	–	–	–	–	promote the translocation of β-catenin from the cytoplasm to the nucleus in a concentration-dependent manner	–
